Literature values, collected in US20030093057A1, “Methods and formulations for photodynamic therapy” (priority 2001, published 2003).
Like-named read-outs stand apart in the source and are kept apart here.

Columns and labels:
[1] = human skin
[2] = mouse skin

- penetration of ALA into skin at increased temperature [1]: did not cause increased penetration
- penetration of ALA into skin at increased temperature [2]: did not cause increased penetration
SMILES: NCC(=O)CCC(=O)O [ALA, delta-aminolevulinic acid]
